In ChEMBL document CHEMBL1136325, “Synthesis and biological evaluation of GABA derivatives able to cross the blood-brain barrier in rats” (2003):
Blank lines part the entries; values can stand above or below the compound they belong to. Activity calls are given as the source filed them. The rule behind the calls is not given here.

Key:
Rattus norvegicus [1] = assay: In vivo pentobarbital (30 mg/kg ip)-induced hypnosis in rats after iv administration at a dose of 92 umol; format: functional
Rattus norvegicus [2] = assay: In vivo pentobarbital (30 mg/kg ip)-induced hypnosis in rats after intracerebroventricular administration at a dose of 3.90 uL; format: functional
Rattus norvegicus [3] = assay: In vivo pentobarbital (30 mg/kg ip)-induced hypnosis in rats after intracerebroventricular administration at a dose of 7.80 uL by pretreatment with atropine (1.0 mg/kg iv); format: functional
Rattus norvegicus [4] = assay: In vivo pentobarbital (30 mg/kg ip)-induced hypnosis in rats after iv administration at a dose of 184 umol; format: functional
Cavia porcellus [5] = organism: Cavia porcellus; assay: Effect on ileal tone in guinea pig up to 100 uM; No effect; format: functional
Cavia porcellus [6] = organism: Cavia porcellus; assay: Inhibitory activity against L-glutamate decarboxylase treated from 0.01 to 10 mM concentrations of the compound; Inactive
Rattus norvegicus [7] = assay: In vivo pentobarbital (30 mg/kg ip)-induced hypnosis in rats after intracerebroventricular administration at a dose of 7.80 uL; format: functional
Rattus norvegicus [8] = assay: In vivo pentobarbital (30 mg/kg ip)-induced hypnosis in rats after intracerebroventricular administration at a dose of 1.95uL; format: functional
Rattus norvegicus [9] = assay: In vivo pentobarbital (30 mg/kg ip)-induced hypnosis in rats after intracerebroventricular administration at a dose of 15.6 uL; format: functional
Cavia porcellus [10] = organism: Cavia porcellus; assay: Inhibitory activity against L-glutamic decarboxylase treated from 0.01 to 10 mM concentrations of the compound; Inactive
Rattus norvegicus [11] = assay: In vivo pentobarbital (30 mg/kg ip)-induced hypnosis in rats after iv administration at a dose of 368 umol; format: functional
Rattus norvegicus [12] = assay: In vivo pentobarbital (30 mg/kg ip)-induced hypnosis in rats after intracerebroventricular administration at a dose of 15.6 uL by pretreatment with atropine (1.0 mg/kg iv); format: functional
Rattus norvegicus [13] = assay: In vivo pentobarbital (30 mg/kg ip)-induced hypnosis in rats after iv administration at a dose of 23 umol; format: functional
[14] = target: GABA-B receptor (Homo sapiens) (UniProt Q9UBS5+O75899); assay: Antagonistic potency against Gamma-aminobutyric acid type B receptor of guinea pig ileum; format: functional, tissue-based; details: Cavia porcellus, target entry is the homologue from another species
Rattus norvegicus [15] = assay: In vivo pentobarbital (30 mg/kg ip)-induced hypnosis in rats; Moderate dyspnea; format: functional, organism-based
Rattus norvegicus [16] = assay: In vivo pentobarbital (30 mg/kg ip)-induced hypnosis in rats after iv administration at a dose of 46 umol; format: functional

Structure (SMILES): COS(=O)(=O)[O-].C[n+]1cccc(C(=O)NCCCC(=O)O)c1
Hypnosis duration (Rattus norvegicus [9]): 100 min
Activity (Cavia porcellus [10]): inactive
Hypnosis duration (Rattus norvegicus [11]): 153 min
Hypnosis duration (Rattus norvegicus [12]): 158 min
Ileal activity (Cavia porcellus [5]): inactive

Structure (SMILES): NCCCC(=O)O [GAMMA-AMINOBUTYRIC ACID]
Hypnosis duration (Rattus norvegicus [2]): 188 min
Hypnosis duration (Rattus norvegicus [4]): 128 min

Structure (SMILES): C[n+]1cccc(C(=O)NCCCC(=O)OCc2ccccc2)c1.[I-]
Hypnosis duration (Rattus norvegicus [13]): 156 min
Hypnosis duration (Rattus norvegicus [1]): 194 min
Hypnosis duration (Rattus norvegicus [15]): Moderate dyspnea
Hypnosis duration (Rattus norvegicus [16]): 207 min

The next lines start with results.

Activity (Cavia porcellus [6]): inactive
Structure (SMILES): CN1C=CC(CC2C=CN(C)C=C2C(=O)NCCCC(=O)[O-])C(C(=O)NCCCC(=O)[O-])=C1.[Na+].[Na+] (centres undefined)
Hypnosis duration (Rattus norvegicus [1]): 149 min
Hypnosis duration (Rattus norvegicus [2]): 142 min
Hypnosis duration (Rattus norvegicus [3]): 184 min
Hypnosis duration (Rattus norvegicus [4]): 80 min
Ileal activity (Cavia porcellus [5]): inactive
Hypnosis duration (Rattus norvegicus [7]): 60 min
Hypnosis duration (Rattus norvegicus [8]): 147 min

pD2 [14]: 5.59
Structure (SMILES): CN1C=CC(CC2C=CN(C)C=C2C(=O)NCCCC(=O)OCc2ccccc2)C(C(=O)NCCCC(=O)OCc2ccccc2)=C1 (centres undefined)
Hypnosis duration (Rattus norvegicus [13]): 206 min
Adverse effect (Rattus norvegicus [15]): Moderate dyspnea
Effect (Cavia porcellus [5]): inactive
Hypnosis duration (Rattus norvegicus [16]): 257 min
